Assay results as given in patent US4305951A, “Novel amino derivatives of 5-(2-hydroxystyryl)-isoxazole, their preparation and therapeutic formulations containing these compounds” (BASF Aktiengesellschaft, priority 1979, dated 1981).
“Also recorded” adds a separate entry of the source.

Columns and labels:
[1] = system: blood pressure in the carotid artery; assay: Hypotensive action on narcotized rats; assay type: in vivo, rat (Sprague-Dawley); conditions: for ED20: Rattus norvegicus, read-out: ED 20% (dose which lowers the mean carotid blood pressure by 20%)
Protocol: To test the hypotensive action, the compounds are administered intravenously to male Sprague-Dawley rats (weight: 230-280 g) under urethane narcosis (1.78 g/kg administered intraperitineally).
The blood pressure in the carotid artery is measured by means of a Statham transducer. The ED 20% is determined as the dose which lowers the mean carotid pressure by 20%.
^(2) Rats. Urethane narcosis. Intravenous administration. ED 20% =
dose [in mg/kg] which lowers the blood pressure by 20%.

[2] = system: isoproterenol-induced tachycardia; assay: β-Sympatholytic action: inhibition of isoproterenol-induced tachycardia in pithed rats; conditions: for ED50: Rattus norvegicus, read-out: ED 50% (dose which inhibits the isoproterenol-induced increase in pulse rate by 50%)
[3] = in vivo; conditions: for LD50: ip
Excerpt: Intraperitoneal administration.

[4] = urethane narcosis, intravenous administration

SMILES	increase of blood pressure ([1]; 2.15 mg/kg intravenous, urethane narcosis) [%]	lowering of blood pressure ([1]; 4.64 mg/kg intravenous, urethane narcosis, average) [%]	animals that died ([1]; 10 mg/kg intravenous, urethane narcosis)	hypotensive action (in words) ([1]; acute test, intravenous)	R.A. = relative activity (β-sympatholytic) ([2]; Propranolol = 1.00, pithed rats, intravenous)	Q: lethal dose as multiple of the β-sympatholytically effective dose ([3]; LD 50 mice i.p. / ED 50% pithed rats i.v.)	selectivity ratio ([3]; mouse, in vivo)	LD50 ([3]; mouse, in vivo) [mg/kg]	ED20 [1, 4] [mg/kg]	ED 20% (dose which lowers the mean carotid blood pressure by 20%) [1, 4] [mg/kg]	ED50 ([2]; iv) [mg/kg]	β-sympatholytic activity compared with propranolol (in words) ([2]; pithed rats, intravenous)	R.A. = relative activity (β-sympatholytic) ([2]; rat, in vivo, iv)	Q: lethal dose as multiple of the β-sympatholytically effective dose ([3]; mouse, in vivo)
CC(C)NCC(O)COc1cccc2ccccc12 (centres unmarked) [Propranolol, propranolol]	11	36	2 out of 6	does not have a hypotensive effect in acute test conditions; also recorded: up to doses of 2.15 mg/kg, does not lower the blood pressure	1.00									
COc1ccc(CCNCC(O)COc2ccccc2/C=C/c2cc(C)no2)cc1OC (centres unmarked) [Example 4, 3-methyl-5-[2-[2-hydroxy-3-(2-(3,4-dimethoxyphenyl)-1-ethylamino)-propoxy]-styryl]-isoxazole]						29,900	29900	642	0.7	0.70	0.0215	corresponds approximately to that of propranolol	0.59	
Cc1cc(/C=C/c2ccccc2OCC(O)CNC(C)CCc2ccc(O)cc2)on1 (centres unmarked) [Example 3, 3-methyl-5-[2-[2-hydroxy-3-(3-(4-hydroxyphenyl)-1-methylpropylamino)-propoxy]-styryl]-isoxazole]							24600	261	0.49		0.0106	corresponds approximately to that of propranolol	1.20	24,600
